As usually defined, the AC50 is the concentration at which the activity in the assay is half-maximal.

We go through 95 molecules from PubChem BioAssay AID493191 (Broad Institute, 2011).

This assay concerns MALME3 melanoma viability, CellTiter-Glo luminescence, 24 h. The assay can be described thus: MALME3 melanoma cell viability loss, dose response, orthogonal assay for MITF inhibitor project, CellTiter-Glo, cherry-picked (AID 493191).
Turning to `CCCC(=O)N1CCN(c2ccc(NC(=O)c3ccc([N+](=O)[O-])o3)cc2)CC1`, the AC50 is 8.62 µM.

For the molecule `CCC(=O)N1CCN(c2ccc(NC(=O)c3ccc([N+](=O)[O-])o3)cc2)CC1`, the AC50 was 12.7 µM.

On to `Cc1ccc2nc(C)cc(Nc3ccc([N+](=O)[O-])cc3)c2c1`, for which the concentration at half-maximal activity (AC50) is 31.5 µM.

On to `Cc1ccc(S(=O)(=O)N2CCCCC2)cc1NC(=O)Cn1ncc(Cl)c(Cl)c1=O`, for which the AC50 was 6.08 µM.

As to `CC1(C)Cc2ccccc2C2=NNC(=O)C2=N1`, the AC50 is 7 µM.

Turning to `CC(=O)Nc1ccc(Nc2c3ccccc3nc3ccccc23)cc1`, the AC50 was 25.2 µM.

Take `COc1ccc(C[C@H]2CN3C(=NC[C@@H]3C(C)C)N2CCNC(=O)c2ccc(C)c(Br)c2)cc1`: the AC50 is 27.1 µM.

On to `N=c1n(CC(=O)c2ccc([N+](=O)[O-])cc2)c2ccccc2n1Cc1ccc(Cl)cc1`, for which the AC50 is 17.2 µM.

`O=C1Nc2cc(C(=O)NCCN3CCCCCC3)ccc2S/C1=C\c1ccccc1`: the concentration at half-maximal activity (AC50) was 28.4 µM.

As for `CC(=O)c1cccc(NC(=O)/C=C/c2ccc([N+](=O)[O-])s2)c1`, the AC50 was 16.8 µM.

For `N=c1n(CC(=O)c2ccc([N+](=O)[O-])cc2)c2ccccc2n1Cc1ccccc1`, the AC50 was 25.4 µM.

`COc1ccccc1OCC(=O)N/N=C/C=C/c1ccc([N+](=O)[O-])o1`: the AC50 was 20.6 µM.

As for `CCCCn1c(=N)n(CCOc2ccc(C)cc2)c2ccccc21`, the AC50 is 26.5 µM.

As to `CCN(Cc1ccccc1)c1ccc(/C=N/N=C(N)N)cc1`, the half-maximal activity concentration (AC50) was 24.4 µM.

`O=C1c2cc(F)ccc2-n2c1nc1ccccc1c2=O`: the AC50 is 4.39 µM.

Consider `O=c1c(Cl)c(Cl)cnn1-c1ccccc1`, for which the AC50 was 5.84 µM.

`CCN(CC)CCCNC1=C(Cl)C(=O)c2ccccc2C1=O`: the AC50 was 5.64 µM.

Regarding `COCCN(CC(=O)NC1CCCCC1)C(=O)/C=C/C(=O)c1ccc(OC)cc1O`, the AC50 is 6.68 µM.

On to `CN1CCN(c2ccccc2NC(=O)c2ccc([N+](=O)[O-])o2)CC1`, for which the half-maximal activity concentration (AC50) was 10 µM.

As for `CCN1CCN(c2ccc(NC(=O)c3ccc([N+](=O)[O-])o3)cc2Cl)CC1`, the AC50 was 14.4 µM.

Consider `Cc1cc(Br)ccc1NC(=O)CNC(=O)Cn1ncc(Cl)c(Cl)c1=O`, for which the AC50 is 5.54 µM.

Consider `COc1ccc(C(=O)/C=C/C(=O)N(CC(=O)NC2CCCCC2)Cc2ccccc2)c(O)c1`, for which the AC50 is 6.88 µM.

For `O=C(C#Cc1ccccc1)c1cccc([N+](=O)[O-])c1`, the AC50 is 10.8 µM.

Turning to `CC(=O)N1CCc2c(sc(NC(=O)c3ccc([N+](=O)[O-])o3)c2C#N)C1`, the AC50 was 9.37 µM.

On to `CC1CCN(CC(CS(=O)(=O)c2ccc([N+](=O)[O-])cc2)N2CCC(C)CC2)CC1` (stereo not given), for which the AC50 is 18.9 µM.

Consider `Cc1ccc(-c2nnc(SCC(=O)Nc3ccccc3F)o2)cc1`, for which the AC50 is 19.7 µM.

Turning to `Cc1ccc(NC(=O)c2ncn(CCCN[C@H](C)c3cccc4ccccc34)n2)cc1C`, the AC50 was 29.2 µM.

Consider `COc1cc(CNC2CCCC2)cc(Cl)c1OCc1ccccc1Cl`, for which the AC50 was 17.6 µM.

With `CCn1c(=O)c([N+](=O)[O-])c(Cl)c2ccccc21`, the AC50 is 27.9 µM.

For the molecule `CN(C)S(=O)(=O)c1ccc(-c2csc(N/N=C/c3ccc(O)cc3)n2)cc1`, the concentration at half-maximal activity (AC50) was 21.2 µM.

Consider `O=C(Nc1ccccc1N1CCN(C(=O)c2ccccc2)CC1)c1ccc([N+](=O)[O-])o1`, for which the AC50 is 27.1 µM.

As to `CC(C)=NOc1cc(NC(=O)CCl)cc([N+](=O)[O-])c1`, the AC50 is 5.64 µM.

Turning to `CCOC(=O)CCc1ccc(NC(=O)/C=C/c2ccc([N+](=O)[O-])o2)cc1`, the concentration at half-maximal activity (AC50) is 13.9 µM.

`Cc1cc(C)c[n+](C2=C([O-])c3ccccc3C(=O)/C2=N\S(=O)(=O)c2cccs2)c1`: the AC50 was 9.5 µM.

With `Cn1cc([N+](=O)[O-])c(C(=O)Nc2nc(-c3ccc(Cl)cc3)cs2)n1`, the AC50 is 26.5 µM.

On to `COc1ccccc1CNCC(O)Cn1c2ccccc2c2ccccc21` (stereo not given), for which the AC50 is 20 µM.

On to `O=C(/C=C/c1ccc(Cl)cc1)c1ccc([N+](=O)[O-])o1`, for which the AC50 is 24.5 µM.

As to `O=C(c1ccccc1)c1cc(Cl)ccc1N1C(=O)C=CC1=O`, the AC50 was 9.06 µM.

Regarding `COc1ccc(S(=O)(=O)N2CCCCC2)cc1NC(=O)c1ccc([N+](=O)[O-])o1`, the AC50 was 14.3 µM.

In the case of `CC(=O)Nc1ccc(NC(=O)c2nc(S(=O)(=O)Cc3ccccc3)ncc2Cl)cc1`, the AC50 is 5.12 µM.

`O=C(CNc1cccc([N+](=O)[O-])c1)N/N=C/c1ccc([N+](=O)[O-])o1`: the AC50 is 16.9 µM.

For `O=C(CNC(=O)c1cccc(F)c1)N/N=C/c1ccc([N+](=O)[O-])s1`, the AC50 is 25.1 µM.

With `Cc1c(CCOC(=O)c2ccc(Cl)cc2Cl)sc[n+]1CC(=O)c1ccc(Br)cc1`, the AC50 was 29.3 µM.

As to `COC(=O)c1ccc2c(c1O)C(=O)c1ccccc1C2=O`, the AC50 is 2.82 µM.

For `O=c1c(Cl)c2oc3ccccc3nc-2c2ccccc12`, the AC50 was 14.3 µM.

With `OCCNc1c2ccccc2nc2c(F)c(F)c(F)c(F)c12`, the AC50 is 15.1 µM.

Consider `CCOC(=O)c1cc2sccc2n1CC(=O)N1c2ccccc2CC1C` (stereo not given), for which the AC50 is 25 µM.

As for `O=C1C(Nc2ccccc2)=C(N2CCCCC2)C(=O)c2ccccc21`, the concentration at half-maximal activity (AC50) is 18.2 µM.

`O=C(CNc1cccc2ccccc12)N/N=C/c1ccc([N+](=O)[O-])o1`: the half-maximal activity concentration (AC50) is 16.3 µM.

For the molecule `CCN1c2ccccc2NC2N=C(OC)C(c3ccccc3)C21` (stereo not given), the AC50 was 7.13 µM.

`O=C(Cn1ncc(Cl)c(Cl)c1=O)N1CCc2ccccc21`: the AC50 is 5.98 µM.

As to `Cc1ccc(S(=O)(=O)/N=C2\C(=O)c3ccccc3C([O-])=C2n2cc[n+](CCC(C)C)c2)cc1`, the AC50 is 11.4 µM.

Take `N=c1n(CC(=O)c2ccc(Br)s2)c2ccccc2n1Cc1ccccc1`: the AC50 was 24.7 µM.

Turning to `Cc1c(C(=O)Nc2ccc(S(=O)(=O)N(C)C3CCN(C)CC3)cc2)oc2c(Cl)cccc12`, the AC50 was 26.4 µM.

With `CC(NC(=O)C12CC3CC(CC(C3)C1)C2)C(=O)NN=Cc1ccc([N+](=O)[O-])o1` (stereo not given), the AC50 was 26.9 µM.

With `CC(C)C(=O)N1CCN(c2ccc(NC(=O)c3ccc([N+](=O)[O-])o3)cc2Cl)CC1`, the AC50 was 19.2 µM.

Consider `O=C(Cn1ncc(Cl)c(Cl)c1=O)N1CCN(Cc2ccccc2)CC1`, for which the AC50 is 8.57 µM.

As to `C=C1C(=O)O[C@@H]2[C@H]1[C@@H](OC(=O)/C(C)=C/C)C/C(C)=C\C(=O)/C=C(\C)[C@@H]2O`, the AC50 is 6.41 µM.

On to `Cc1ccc(C(O)(c2ccc(C)c(C)c2)C2CN3CCC2CC3)cc1C` (stereo not given), for which the AC50 is 22.7 µM.

With `CC(=O)OCCNc1cc(Sc2nc3ccccc3[nH]2)c2nonc2c1[N+](=O)[O-]`, the AC50 was 13.6 µM.

On to `S=C=Nc1cccc(C2(N3CCCCC3)CCCCC2)c1`, for which the AC50 is 26 µM.

In the case of `CCOc1ccc(-n2c(C)cc(C(=O)CCl)c2C)cc1`, the AC50 is 19.9 µM.

For the molecule `FC(F)(F)c1cc(CCN2CCNC[C@@H]2Cc2ccccc2)cc(C(F)(F)F)c1`, the AC50 is 19.3 µM.

For `COc1ccc(C(=O)/C(C#N)=N/Nc2ccc([N+](=O)[O-])cc2)cc1`, the AC50 is 16 µM.

With `Cc1oc(-c2ccc(Cl)cc2)nc1CN1CCC(C(=O)NCCCN2CCCC(C)C2)CC1` (stereo not given), the AC50 is 24.4 µM.

Consider `COc1ccc(C(=O)/C=C/C(=O)N(CC(=O)NC2CCCCC2)CC2CCCO2)c(O)c1` (stereo not given), for which the AC50 is 4.8 µM.

For `CCN(CC)CCC(=O)N1C/C(=C/c2ccccc2)C(=O)/C(=C\c2ccccc2)C1`, the AC50 is 28.3 µM.

Regarding `c1ccc(CSc2nnc(-c3ccco3)n2Cc2ccco2)cc1`, the AC50 is 26.4 µM.

As to `Cc1cc(C)c2sc(N(CCCN(C)C)C(=O)COc3ccc(Cl)cc3)nc2c1`, the AC50 is 32.7 µM.

With `COc1cccc(/C=N/Nc2ccc(C(=O)O)cc2)c1O`, the AC50 is 33.2 µM.

Turning to `O=C(Nc1cccc(S(=O)(=O)N2CCCCC2)c1)c1ccc([N+](=O)[O-])o1`, the half-maximal activity concentration (AC50) is 15.9 µM.

With `N=c1n(CCN2CCCC2)c2ccccc2n1CC(O)c1ccc(Cl)c(Cl)c1` (stereo not given), the AC50 is 22.5 µM.

Regarding `O=C(NCC1CCCCC1)C1(CC2CC(c3cccc(Br)c3)=NO2)CCNCC1` (stereo not given), the AC50 is 24.4 µM.

On to `CC1CCC/C=C/C(=O)c2c(O)cc(O)cc2CC(=O)O1` (stereo not given), for which the AC50 is 21.2 µM.

For `Cc1ccc(-n2nnnc2CNC(=O)c2ccc([N+](=O)[O-])o2)cc1C`, the AC50 is 21.5 µM.

`COc1cc(/C=N/NC(N)=O)c(Br)cc1OCC(=O)Nc1ccccc1C`: the AC50 is 29.4 µM.

As for `CC1CCC(C(C)C)C(OC(=O)Cn2c(-c3ccc(Br)cc3)[n+](C)c3ccccc32)C1` (stereo not given), the AC50 was 10.1 µM.

As for `Cc1ccccc1-c1nc(-c2ccccn2)no1`, the AC50 is 22.2 µM.

Consider `COc1cc2c(cc1OC)C(c1ccccc1)N(C(=O)CCl)CC2` (stereo not given), for which the half-maximal activity concentration (AC50) is 18 µM.

As for `Cc1ccc2nc(N(CCCN(C)C)C(=O)c3ccc4c(c3)CCCC4)sc2c1`, the half-maximal activity concentration (AC50) is 21.6 µM.

For `CN(C)CC1CC/C(=C\c2ccc(O)cc2)C1=O` (stereo not given), the AC50 is 25.9 µM.

On to `CC(C)C(=O)N1CCN(c2ccc(NC(=O)c3ccc([N+](=O)[O-])o3)cc2)CC1`, for which the AC50 is 12.8 µM.

On to `O=C1NC2c3c(I)sc(I)c3C(=O)C2O1` (stereo not given), for which the AC50 is 16.6 µM.

On to `O=C(CCl)N(c1ccccc1)C1CCCCC1`, for which the AC50 was 20.1 µM.

As for `CCOC(=O)c1c(C)oc2c1C(=O)c1ccccc1C2=O`, the AC50 is 7.25 µM.

On to `O=C(Cn1ncc(Cl)c(Cl)c1=O)c1ccc(Cl)cc1`, for which the AC50 was 26.5 µM.

As to `Cc1ccc2[nH]c(=O)c(CN(CCCN(C)C)C(=O)Nc3cccc(Cl)c3)cc2c1`, the AC50 is 24.9 µM.

As to `CN(C)CCCN(C(=O)CCc1ccccc1)c1nc2ccc(Br)cc2s1`, the concentration at half-maximal activity (AC50) is 19.2 µM.

For the molecule `CCN1CCN(c2ccc(S(=O)(=O)N3CCCCC3)cc2NC(=O)/C=C/c2ccc([N+](=O)[O-])cc2)CC1`, the AC50 is 23.9 µM.

As to `Cc1ccc(C)c(NC(=O)/C(C#N)=C/c2cn(CC(=O)NCc3ccco3)c3ccccc23)c1`, the AC50 is 18.6 µM.

Take `COC1=C(c2ccccc2)C(=O)c2ccccc2C1=O`: the AC50 was 20.3 µM.

Turning to `O=C(N/N=C\c1ccc([N+](=O)[O-])o1)C1COc2ccccc2O1` (stereo not given), the AC50 is 32.7 µM.

As for `CCOc1cc(/C=N/N=C(N)N)ccc1OCc1ccc(Cl)cc1`, the AC50 was 18.8 µM.

Consider `O=c1c(Cl)c(Cl)cnn1Cc1ccc(F)cc1`, for which the AC50 was 31.6 µM.

`O=C(Nc1cc(-c2nc3ncccc3o2)ccc1Cl)c1ccc([N+](=O)[O-])o1`: the half-maximal activity concentration (AC50) is 18.2 µM.
